From paper PMC10442743 (Dalton Transactions (Cambridge, England : 2003), 2023)
Like-named read-outs stand apart in the source and are kept apart here.

Legend:
[1] = Molar conductivity in acetonitrile; assay type: physicochemical; settings: 1 mM in acetonitrile, 25 °C
Description: The molar conductivity (ΛM, reported as S·cm2·mol–1) of solutions of 11CA in acetonitrile (1 mM) were measured in a Radiometer Copenhagen CDM92 equipped with a conductivity cell CDC641T glass platinum electrode at room temperature (25 °C). The conductivity of the pure solvent was used as standard controls.
Table S3. Solubility in water at 25 °C, n-octanol/water partition coefficient and molar conductivity of the 11CA. * below limit of detection = 5 ppt.

MDA-MB-231 [2] = assay: FITC Annexin V / 7-AAD apoptosis assay, MDA-MB-231; assay type: cell-based, human; settings: 24 h at 24 h IC50 dose
Description: Apoptosis in MCF-7 and MDA-MB-231 cells was determined using FITC Annexin V with a 7-aminoactinomycin D (7-AAD) staining kit (BioLegend®, California, US) according to the manufacturer's instructions. […] Following incubation, the cells were washed with PBS twice and detached using 0.25% trypsin. After obtaining cell pellets by centrifugation (300g for 5 min), the cells were resuspended in 100 μL of PBS, followed by the addition of 10 μL of FITC Annexin V and 7-AAD, and then incubated for 15 min at room temperature while protected from light. After the incubation period, 200 μL of binding buffer was added to the cell suspension and the samples were analyzed immediately using a BD Accuri C6 flow cytometer with a minimum of 10 000 events. The assays were performed in quadruplicate and the results were analyzed with Accuri C6 analysis software.
Each cell viability result represents the mean ± standard deviation (SD) for n = 4 replicates in each of 3 independent assays, resulting in 12 independent values. Each apoptosis value determination represents the mean ± standard deviation of 2 independent assays. The IC50 values were obtained using GraphPad Prism software and ANOVA (analysis of variance) was performed to determine the statistical difference between the IC50 values of different cell lines.

[3] = n-octanol/water partition coefficient (shake-flask, ICP-MS)
Description: The saturated solutions were filtered
(DigiPREP Jr. 15ml, 40 Pos, SCP Science). The digestion program was the following: 15
After the digestion, the sample
Samples were further diluted
range. All measurements were performed in triplicates.
lipophilicity of a compound. This assay was performed following the Shake-flask method
organic and aqueous phase. Aliquots of each phase were taken and analyzed separately
range. The partition coefficient was calculated as P!"=
respectively. All measurements were performed in triplicates.

[4] = Solubility in water (ICP-MS); settings: 25 °C, limit of detection = 5 ppt
MCF-7 [5] = assay: MTT cytotoxicity assay, MCF-7 cells; assay type: cell-based, human; settings: MTT
Description: (§1) The cytotoxicity of 1–11CA was assessed against human breast cancer MCF-7 and MDA-MB-231 cells, and non-tumorigenic adherent mouse fibroblast connective tissue L929 cells using the MTT assay after 24 and 72 h (Tables S5 ^† and Table 1, respectively).
(§2) Then, necessary dilutions were made using the supplement DMEM, to prepare the range of tested concentrations. Since DMSO was used to solubilize the compounds, a supplemented DMEM + DMSO (at the same percentage as in the sequential dilutions) was considered as a control in the 3-[4,5-dimetylthiazole-2-yl]-2,5-diphenyltetrazolium bromide (MTT) assay.
(§3) L929, MCF-7, and MDA-MB-231 cell lines were cultured in DMEM supplemented with 10% (v/v) FBS and 1% (v/v) of penicillin–streptomycin. The cells were incubated in a humidified chamber at 37 °C under saturated air with a 5% CO2 atmosphere. Cells were passed at 80%–90% of confluency with 0.25% (w/v) trypsin and the cell culture media was changed every 2–3 days.
(§4) The compounds were tested on two breast cancer cell lines (MCF-7 and MDA-MB-231) and L929 fibroblasts, used as a reference for the safety evaluation according to ISO 10993-1:2009 “Biological evaluation of medical devices”. Cells were seeded on sterile 96-well plates at 50 000 cells per well (L929) and 20 000 cells per well (MCF-7 and MDA-MB-231) in supplemented DMEM medium (100 μL) for 24 h. The culture medium was removed and new media containing different concentrations of the compounds (0–1000 μM) was added to the wells (100 μL). Control cells were incubated under the same conditions in the absence of a compound. Cells were incubated for 24 and 72 h under the same conditions described above. Then, the medium was removed, and the cells were incubated with 3-(4,5-dimethylthiazol-2-yl)-2,5-diphenyltetrazolium bromide (MTT; 0.5 mg mL^−1) for 3 h. After this time, the medium was removed, and formazan crystals were solubilized with DMSO (100 μL per well). The absorbance in each well was read on a SynergyTM HT Multimode microplate reader (BioTek Instruments; Winooski, VT, USA) at 570 and 630 nm (for background correction), and the cell viability was calculated according to the following equation (eqn (1)):1 [drawing 3] where OD570(sample) and OD630(sample) are the optical densities of the solutions containing the compounds and OD570(control) and OD630(control) are controls without compound.
(§5) Each apoptosis value determination represents the mean ± standard deviation of 2 independent assays. The IC50 values were obtained using GraphPad Prism software and ANOVA (analysis of variance) was performed to determine the statistical difference between the IC50 values of different cell lines.

MDA-MB-231 [6] = assay: MTT cytotoxicity assay, MDA-MB-231 cells; assay type: cell-based, human; settings: MTT
Description: as §1, §2, §3, §4, §5

L929 = assay: MTT cytotoxicity assay, L929 fibroblasts (and selectivity index); assay type: cell-based, mouse; settings: for SI (selectivity index): IC50 L929 divided by average IC50 of the breast cancer cell lines; for IC50: MTT
Description: as §1, §2, §3, §4, §5

ct-DNA = settings: cited from earlier work
ctDNA = assay: Circular dichroism / induced circular dichroism with calf thymus DNA; settings: DNA
Description: Calf thymus (ct) DNA (Merck®) was used to perform the circular dichroism assay to detect conformational changes in the ctDNA induced by the compounds. CD spectral data was collected on a Chirascan™ V100 (Applied Photophysics) spectropolarimeter equipped with a large area Avalanche photodiodes detector and computer-controlled thermoelectrical cell holder using a 1 cm path length quartz cuvette. CD spectra of ctDNA in the absence and presence of different concentrations of 11Cl were recorded at wavelengths ranging from 320 to 190 nm under constant nitrogen flush at 25 °C. For each CD spectrum, the number of scans was set to 5, and spectral data were collected at 0.1 ms intervals. Additionally, methyl green (MG) and 4′,6-diamidino-2-phenylindole (DAPI), and propidium iodide (PI) were analyzed as minor and major groove binders and as an intercalator, respectively, to help identify the binding mode of 11Cl to DNA. Samples were prepared in 10 mM Tris-HCl buffer (pH 7.6) with 1 mM EDTA. The concentration of ctDNA was fixed at 100 μM (concerning base pairs) and the ctDNA to 11Cl ratio was varied between 0 and 1. The samples were incubated for 24 h at 37 °C and then analyzed in the CD spectropolarimeter.

MDA-MB-231 [7] = settings: read-out: cytotoxicity (IC50) MDA-MB-231, cited from earlier work
MCF-7 [8] = settings: read-out: cytotoxicity (IC50) MCF-7, cited from earlier work
[9] = 24 h exposure, read-out: IC50 (µM) (average ± standard deviation) 24 h MCF-7
[10] = 72 h exposure, read-out: IC50 (μM) (average ± standard deviation) 72 h MCF-7
[11] = 24 h exposure, read-out: IC50 (µM) (average ± standard deviation) 24 h MDA-MB-231
[12] = 72 h exposure, read-out: IC50 (μM) (average ± standard deviation) 72 h MDA-MB-231
[13] = 24 h exposure, read-out: IC50 (µM) (average ± standard deviation) 24 h L929
[14] = 72 h exposure, read-out: IC50 (μM) (average ± standard deviation) 72 h L929

| SMILES | Conductivity (molar conductivity) [1] | average apoptosis percentage, MDA-MB-231 cells (MDA-MB-231 [2]) | LogPow [3] | Solubility (μM) [4] | Solubility (μg/mL) [4] | IC50 (MCF-7 [5]; [9]) | IC50 (MCF-7 [5]; [10]) | IC50 (MDA-MB-231 [6]; [11]) | IC50 (MDA-MB-231 [6]; [12]) | SI (selectivity index) (L929; 24 h) | IC50 (L929; [13]) | SI (selectivity index) (L929; 72 h) | IC50 (L929; [14]) | CD band 210 nm, intensity change (ctDNA; 24 h, 37 °C) | CD band 210 nm, wavelength shift (ctDNA; 24 h, 37 °C) | CD band 220 nm (hydrogen bonding), intensity change (ctDNA; 24 h, 37 °C) | CD band 220 nm (hydrogen bonding), wavelength shift (ctDNA; 24 h, 37 °C) | CD band 246 nm (helicity), intensity change (ctDNA; 24 h, 37 °C) | CD band 246 nm (helicity), wavelength shift (ctDNA; 24 h, 37 °C) | CD band 268−280 nm (base-pair stacking interactions), wavelength shift (ctDNA; 24 h, 37 °C) | other results |
| --- | --- | --- | --- | --- | --- | --- | --- | --- | --- | --- | --- | --- | --- | --- | --- | --- | --- | --- | --- | --- | --- |
| Cc1cccc[c]1[Ru+]([Cl])([PH](c1ccccc1)(c1ccccc1)c1ccccc1)[PH](c1ccccc1)(c1ccccc1)c1ccccc1.O=S(=O)([O-])C(F)(F)F [Compound 11OTf] | 173 S·cm2/mol | 40% | 1.75 ± 0.18 | 1.1 ± 0.1 µM | 1.0 ± 0.1 µg/mL | 4 ± 1 µM | 0.6 ± 0.07 µM | 4 ± 2 µM | 1.4 ± 0.1 µM | 1.5 | 5.8 ± 0.7 µM | 1.8 | 1.8 ± 0.2 µM |  |  |  |  |  |  |  |  |
| Cc1cccc[c]1[Ru+]([Cl])([PH](c1ccccc1)(c1ccccc1)c1ccccc1)[PH](c1ccccc1)(c1ccccc1)c1ccccc1.[F][Sb-]([F])([F])([F])([F])[F] [Compound 11SbF6] | 186 S·cm2/mol | 95% | 2.01 ± 0.07 | below LOD | below LOD | 11 ± 2 µM | 0.08 ± 0.01 µM | 21 ± 2 µM | 0.131 ± 0.009 µM | 0.4 | 7 ± 0.4 µM | 12.8 | 1.35 ± 0.09 µM |  |  |  |  |  |  |  |  |
| N=C(N)c1ccc(-c2cc3ccc(C(=N)N)cc3[nH]2)cc1 [DAPI] |  |  |  |  |  |  |  |  |  |  |  |  |  | Hypochromic | Red | Hyperchromic | Blue shift | Unchanged | Unchanged | Unchanged | Kprobe, binding constant of the probe to DNA (ct-DNA; used in eqn (4) ref 92): 5e+06 M⁻¹; CD band 268 nm, intensity change (ctDNA; 268 nm part of the 268−280 nm band): Hyperchromic; CD band 280 nm, intensity change (ctDNA; 280 nm part of the 268−280 nm band): Hypochromic |
| CN(C)c1ccc(C(=C2C=CC(=[N+](C)C)C=C2)c2ccc([N+](C)(C)C)cc2)cc1.[Cl-].[Cl-] [MG, methyl green] |  |  |  |  |  |  |  |  |  |  |  |  |  | Hypochromic | Blue | Hyperchromic | Blue shift | Hypochromic | Unchanged | Unchanged | Kprobe, binding constant of the probe to DNA (ct-DNA; used in eqn (4) ref 91): 900000 M⁻¹; CD band 268−280 nm (base-pair stacking interactions), intensity change (ctDNA; 24 h, 37 °C): Unchanged |
| N.N.O=C([O-])C1(C(=O)[O-])CCC1.[Pt+2] [carboplatin] |  |  |  |  |  |  |  |  |  |  |  |  |  |  |  |  |  |  |  |  | IC50 (MDA-MB-231 [7]; literature value ref 44): 15.4 ± 3.3 µM; IC50 (MCF-7 [8]; literature value ref 43): 27.3 µM |
| N.N.[Cl][Pt][Cl] [cisplatin] |  |  |  |  |  |  |  |  |  |  |  |  |  |  |  |  |  |  |  |  | IC50 (MDA-MB-231 [7]; literature value ref 42): 38.7 ± 0.03 µM; IC50 (MCF-7 [8]; literature value ref 41): 28 ± 6 µM |
